Assay results: patent publication US8841456B2, “1,5-naphthyridine derivative or salt thereof” (FUJIFILM Corporation, priority 2011, dated 2014)
Where two headings read alike, the source gives them in different places.

Columns and labels:
human PI3Kα protein = target: T1, human PI3Kα protein (Homo sapiens, UniProt P42336); experiment: PI3Kα enzyme assay (ADP-Glo kinase assay); format: biochemical; conditions: 3 nM PI3Kα, 50 μM PIP2, 100 μM ATP
T1 construct: purchased Carna Biosciences, Inc; host or cells: Baculovirus expression system
Experimental: Evaluation of the PI3Kα inhibitory activity of the compound of the present invention was carried out according to the method as described below.
For the PI3Kα enzyme assay, biotinylated product of a human PI3Kα protein produced using a Baculovirus expression system (Carna Biosciences, Inc.) was used. Further, for the detection of the enzyme activity, an ADP-Glo kinase assay (PROMEGA Corporation) was used.
10 μL of a reaction solution (3 nM PI3Kα, 40 mM Tris-HCl, 20 mM MgCl2, 0.1% BSA, pH 7.5) including the human PI3Kα protein and a test compound at a predetermined concentration was incubated at room temperature for 15 minutes. Thereafter, 5 μL of a mixed solution of L-α-Phosphatidylinositol 4,5-diphosphate (PIP2) (SIGMA-ALDLICH) which was a substrate and ATP(SIGMA-ALDLICH) was added thereto to a final concentration of 50 μM and 100 μM, respectively, and the reaction solution was further incubated at 25° C. for 60 minutes to carry out an enzyme reaction.
After the reaction, 15 μL of an ADP-Glo reagent (PROMEGA Corporation) was added and the resulting liquid was incubated at room temperature for 60 minutes, whereby the enzyme reaction was stopped. Thereafter, after further adding 30 μL of a Kinase Detection Reagent (PROMEGA Corporation) and standing the resulting solution at room temperature for 40 minutes, ADP produced by the enzyme reaction was quantified by luminescence intensity.
For the measurement of luminescence intensity, EnVision (PerkinElmer, Inc.) was used.
(§1) The inhibitory activity of the compounds was evaluated using an IC50 (50% inhibitory concentration). The IC50 was calculated using XLfit (IDBS).

[1] = target: T2, glutathione S-transferase (GST)-fusion human ERK2 protein (Homo sapiens, UniProt P28482); experiment: ERK2 enzyme assay (LabChip mobility shift); format: biochemical; conditions: 2 nM ERK2, 4.25 μM FL-Peptide 8, 43 μM ATP
T2 construct: purchased Carna Biosciences, Inc; host or cells: E. coli expression system
Experimental: Evaluation of the ERK2 inhibitory activity of the compound of the present invention was carried out according to the method as described below.
For the ERK2 enzyme assay, a glutathione S-transferase (GST)-fusion human ERK2 protein (Carna Biosciences, Inc.) produced using an E. coli expression system was used.
12 μL of the reaction solution (2 nM ERK2, 100 mM Hepes, 10 mM MgCl2, 1.5 mM DTT, 0.003% Brij35, pH 7.5) including the ERK2 protein and a test compound at a predetermined concentration was incubatedat room temperature for 15 minutes. Thereafter, 3 μL of a mixed solution of FL-Peptide 8 (5-FAM-IPTSPITTTYFFFKKK-COOH) (Caliper Lifescience) which was a substrate and ATP(SIGMA-ALDLICH) were added thereto to a final concentration of 4.25 μM and 43 μM, respectively. The reaction solution was further incubated at 25° C. for 120 minutes to carry out an enzyme reaction.
The enzyme reaction was stopped by adding 27 μL of a reaction-stopping solution (100 mM HEPES, 11.2 mM EDTA, 5.6% Brij35, pH 7.5) including a 0.5% Coating reagent 8 (PerkinElmer, Inc.) after the reaction. Thereafter, non-phosphorylated peptides and phosphorylated peptides were separated using LabChip Ez Reader (Caliper LifeScience, Inc.) to quantify the proportion of phosphorylated peptides.
as §1

[2] = IC50 class, read-out: PI3Kα Inhibitory Activity
[3] = IC50 class, read-out: ERK2 Inhibitory Activity

T1 sequence (P42336 whole entry): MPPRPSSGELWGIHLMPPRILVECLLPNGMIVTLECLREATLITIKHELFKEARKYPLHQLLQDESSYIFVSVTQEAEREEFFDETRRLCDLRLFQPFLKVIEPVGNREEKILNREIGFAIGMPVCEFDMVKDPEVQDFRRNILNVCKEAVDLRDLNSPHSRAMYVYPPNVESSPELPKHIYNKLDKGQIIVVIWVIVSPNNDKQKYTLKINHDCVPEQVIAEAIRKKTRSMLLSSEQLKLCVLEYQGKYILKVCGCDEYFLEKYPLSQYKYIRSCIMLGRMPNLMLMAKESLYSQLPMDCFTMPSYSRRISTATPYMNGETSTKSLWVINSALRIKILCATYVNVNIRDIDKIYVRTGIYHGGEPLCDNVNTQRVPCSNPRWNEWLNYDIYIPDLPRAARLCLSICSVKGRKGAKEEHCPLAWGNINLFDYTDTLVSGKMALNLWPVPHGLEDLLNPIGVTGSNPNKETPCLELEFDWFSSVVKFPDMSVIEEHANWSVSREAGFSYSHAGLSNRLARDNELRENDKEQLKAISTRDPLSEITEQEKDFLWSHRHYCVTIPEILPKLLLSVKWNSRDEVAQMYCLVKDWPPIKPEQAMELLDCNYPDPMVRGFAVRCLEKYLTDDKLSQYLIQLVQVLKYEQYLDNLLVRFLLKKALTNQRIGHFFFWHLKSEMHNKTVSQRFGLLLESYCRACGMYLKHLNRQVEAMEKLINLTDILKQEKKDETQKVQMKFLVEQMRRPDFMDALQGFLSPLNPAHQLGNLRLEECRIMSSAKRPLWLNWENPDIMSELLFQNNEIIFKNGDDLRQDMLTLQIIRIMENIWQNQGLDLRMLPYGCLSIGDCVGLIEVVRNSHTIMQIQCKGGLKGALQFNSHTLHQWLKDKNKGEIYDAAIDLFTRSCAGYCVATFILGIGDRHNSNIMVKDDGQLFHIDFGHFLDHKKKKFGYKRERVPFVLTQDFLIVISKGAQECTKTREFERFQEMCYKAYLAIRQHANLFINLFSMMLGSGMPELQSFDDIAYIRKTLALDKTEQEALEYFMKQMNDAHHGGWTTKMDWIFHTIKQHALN
T1 sequence (P27986 whole entry partner): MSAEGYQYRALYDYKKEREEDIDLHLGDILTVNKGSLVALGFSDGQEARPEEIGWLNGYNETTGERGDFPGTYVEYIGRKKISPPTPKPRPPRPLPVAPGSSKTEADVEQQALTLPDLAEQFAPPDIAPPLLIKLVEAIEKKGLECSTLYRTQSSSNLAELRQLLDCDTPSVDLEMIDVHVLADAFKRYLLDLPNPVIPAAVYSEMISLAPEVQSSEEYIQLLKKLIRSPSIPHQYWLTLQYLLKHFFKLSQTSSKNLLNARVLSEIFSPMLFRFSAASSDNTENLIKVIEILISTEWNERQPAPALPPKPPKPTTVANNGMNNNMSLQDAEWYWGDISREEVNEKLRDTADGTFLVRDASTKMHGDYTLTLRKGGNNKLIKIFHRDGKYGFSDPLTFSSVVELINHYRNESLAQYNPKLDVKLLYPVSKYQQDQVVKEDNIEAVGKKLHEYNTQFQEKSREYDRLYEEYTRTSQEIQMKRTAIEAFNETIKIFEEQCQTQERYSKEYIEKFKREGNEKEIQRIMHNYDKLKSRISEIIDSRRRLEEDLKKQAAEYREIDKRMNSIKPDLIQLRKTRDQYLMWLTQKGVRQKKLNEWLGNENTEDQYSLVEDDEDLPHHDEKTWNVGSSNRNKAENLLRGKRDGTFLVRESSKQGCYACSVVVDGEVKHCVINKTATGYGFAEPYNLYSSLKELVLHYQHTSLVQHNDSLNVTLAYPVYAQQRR
T2 sequence (P28482 whole entry, the tested form may be a part): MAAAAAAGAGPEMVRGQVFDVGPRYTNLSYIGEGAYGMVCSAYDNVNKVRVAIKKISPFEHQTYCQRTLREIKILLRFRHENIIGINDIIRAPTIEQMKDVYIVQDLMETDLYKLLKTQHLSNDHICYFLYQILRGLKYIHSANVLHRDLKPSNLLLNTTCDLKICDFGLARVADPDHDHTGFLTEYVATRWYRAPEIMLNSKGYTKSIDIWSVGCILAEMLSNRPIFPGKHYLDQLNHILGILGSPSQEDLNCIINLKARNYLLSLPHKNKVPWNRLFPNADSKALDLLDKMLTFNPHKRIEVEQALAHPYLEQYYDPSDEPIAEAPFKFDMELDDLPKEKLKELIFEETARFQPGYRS

Row | Structure (SMILES) | IC50 (human PI3Kα protein; [2]) | IC50 [1, 3] | IC50 (human PI3Kα protein; read-out: PI3Kα, IC50) | IC50 ([1]; read-out: ERK2, IC50)
1 | COc1cc(-c2cnc3ccc(NC(=O)NC4CCCC4)nc3c2)ccc1O [Compound 0001] | < 100 nM | < 100 nM |  | 
2 | COc1ccc(-c2cnc3ccc(NC(=O)NC4CCCC4)nc3c2)cc1OC [Compound 0002] | < 100 nM | < 100 nM | 84 nM | 42 nM
3 | Cn1cc(-c2cnc3ccc(NC(=O)NC4CCCC4)nc3c2)cn1 [Compound 0003] | < 100 nM | < 100 nM |  | 
4 | O=C(Nc1ccc2ncc(-c3cnn(CCN4CCOCC4)c3)cc2n1)NC1CCCC1 [Compound 0004] | < 100 nM | < 100 nM |  | 
5 | O=C(Nc1ccc2ncc(-c3cccnc3)cc2n1)NC1CCCC1 [Compound 0005] | 100 to 1000 nM | 100 to 1000 nM |  | 
6 | O=C(Nc1ccc2ncc(-c3ccccc3)cc2n1)NC1CCCC1 [Compound 0006] | 100 to 1000 nM | 100 to 1000 nM |  | 
7 | O=C(Nc1ccc2ncc(-c3ccncc3)cc2n1)NC1CCCC1 [Compound 0007] | < 100 nM | < 100 nM |  | 
8 | O=C(Nc1ccc2ncc(N3CCOCC3)cc2n1)NC1CCCC1 [Compound 0008] | < 100 nM | < 100 nM |  | 
9 | COc1cc(Nc2cnc3ccc(NC(=O)NC4CCCC4)nc3c2)cc(OC)c1OC [Compound 0009] | < 100 nM |  | < 3 nM | 1220 nM
10 | COCCNc1cnc2ccc(NC(=O)NC3CCCC3)nc2c1 [Compound 0010] | < 100 nM | 1000 to 10000 nM |  | 
11 | CN(C)CCNc1cnc2ccc(NC(=O)NC3CCCC3)nc2c1 [Compound 0011] | 100 to 1000 nM | 1000 to 10000 nM |  | 
12 | CC(C)(C)OC(=O)N1CCN(c2cnc3ccc(NC(=O)NC4CCCC4)nc3c2)CC1 [Compound 0012] | 100 to 1000 nM | 1000 to 10000 nM |  | 
13 | O=C(Nc1ccc2ncc(N3CCNCC3)cc2n1)NC1CCCC1 [Compound 0013] | 100 to 1000 nM | 100 to 1000 nM |  | 
14 | COc1cc(-c2cnc3ccc(NC(=O)NC4CCCC4)nc3c2)cnc1OC [Compound 0014] | 100 to 1000 nM | 100 to 1000 nM |  | 
15 | COc1cc(-c2cnc3ccc(NC(=O)NC4CCCC4)nc3c2)cnc1O [Compound 0015] | < 100 nM | < 100 nM |  | 
16 | CN(C)CCOc1cc(-c2cnc3ccc(NC(=O)NC4CCCC4)nc3c2)ccc1O [Compound 0016] | < 100 nM | < 100 nM |  | 
17 | C#Cc1cnc2ccc(NC(=O)NC3CCCC3)nc2c1 [Compound 0017] | 100 to 1000 nM | 1000 to 10000 nM |  | 
18 | CN(C)CCn1cc(-c2cnc3ccc(NC(=O)NC4CCCC4)nc3c2)cn1 [Compound 0018] | < 100 nM | 100 to 1000 nM |  | 
19 | C=Cn1cc(-c2cnc3ccc(NC(=O)NC4CCCC4)nc3c2)cn1 [Compound 0019] | < 100 nM | < 100 nM |  | 
20 | O=C(Nc1ccc2ncc(-c3ccc(F)cc3)cc2n1)NC1CCCC1 [Compound 0020] | 100 to 1000 nM | < 100 nM |  | 
21 | COCCOc1cc(-c2cnc3ccc(NC(=O)NC4CCCC4)nc3c2)ccc1O [Compound 0021] | 100 to 1000 nM | < 100 nM |  | 
22 | COc1cc(-c2cnc3ccc(NC(=O)NC4CCCC4)nc3c2)ccn1 [Compound 0022] | < 100 nM | < 100 nM |  | 
23 | O=C(Nc1ccc2ncc(-c3ccnc(O)c3)cc2n1)NC1CCCC1 [Compound 0023] | < 100 nM | 100 to 1000 nM |  | 
24 | O=C(Nc1ccc2ncc(-c3cnn(CCN4CCC4)c3)cc2n1)NC1CCCC1 [Compound 0024] | < 100 nM | 100 to 1000 nM |  | 
25 | CCN(CC)CCn1cc(-c2cnc3ccc(NC(=O)NC4CCCC4)nc3c2)cn1 [Compound 0025] | < 100 nM | 100 to 1000 nM |  | 
26 | COCCN(C)c1cnc2ccc(NC(=O)NC3CCCC3)nc2c1 [Compound 0026] | < 100 nM | 100 to 1000 nM |  | 
27 | CN1CCN(c2cnc3ccc(NC(=O)NC4CCCC4)nc3c2)CC1 [Compound 0027] | 100 to 1000 nM | 100 to 1000 nM |  | 

Row | Structure (SMILES) | IC50 (human PI3Kα protein; [2]) | IC50 [1, 3] | IC50 (human PI3Kα protein; read-out: PI3Kα, IC50) | IC50 ([1]; read-out: ERK2, IC50)
28 | COc1ccc(Nc2cnc3ccc(NC(=O)NC4CCCC4)nc3c2)cc1 [Compound 0028] | < 100 nM | > 10000 nM |  | 
29 | COc1cccc(Nc2cnc3ccc(NC(=O)NC4CCCC4)nc3c2)c1 [Compound 0029] | < 100 nM | > 10000 nM |  | 
30 | COc1ccc(Nc2cnc3ccc(NC(=O)NC4CCCC4)nc3c2)cc1OC [Compound 0030] | < 100 nM | > 10000 nM |  | 
31 | COc1cc(Nc2cnc3ccc(NC(=O)NC4CCCC4)nc3c2)cc(OC)c1 [Compound 0031] | < 100 nM | 1000 to 10000 nM |  | 
32 | COCCn1cc(-c2cnc3ccc(NC(=O)NC4CCCC4)nc3c2)cn1 [Compound 0032] | < 100 nM | < 100 nM |  | 
33 | O=C(Nc1ccc2ncc(-c3cccc(O)c3)cc2n1)NC1CCCC1 [Compound 0033] | 100 to 1000 nM | < 100 nM |  | 
34 | O=C(Nc1ccc2ncc(-c3ccc(O)cc3)cc2n1)NC1CCCC1 [Compound 0034] | < 100 nM | < 100 nM |  | 
35 | CS(=O)(=O)Nc1cccc(-c2cnc3ccc(NC(=O)NC4CCCC4)nc3c2)c1 [Compound 0035] | < 100 nM | < 100 nM |  | 
36 | O=C(Nc1ccc2ncc(-c3cnn(CCN4CCCCC4)c3)cc2n1)NC1CCCC1 [Compound 0036] | < 100 nM | < 100 nM |  | 
37 | COCCN(C)CCn1cc(-c2cnc3ccc(NC(=O)NC4CCCC4)nc3c2)cn1 [Compound 0037] | < 100 nM | < 100 nM |  | 
38 | O=C(Nc1ccc2ncc(N3CC(O)C3)cc2n1)NC1CCCC1 [Compound 0038] | < 100 nM | < 100 nM |  | 
39 | O=C(Nc1ccc2ncc(-c3ccnc(F)c3)cc2n1)NC1CCCC1 [Compound 0039] | 100 to 1000 nM | < 100 nM |  | 
40 | O=C(Nc1ccc2ncc(-c3ccccc3CO)cc2n1)NC1CCCC1 [Compound 0040] | 1000 to 10000 nM | 100 to 1000 nM |  | 
41 | O=C(Nc1ccc2ncc(-c3ccc(CO)cc3)cc2n1)NC1CCCC1 [Compound 0042] | 100 to 1000 nM | < 100 nM |  | 
42 | Cc1n[nH]cc1-c1cnc2ccc(NC(=O)NC3CCCC3)nc2c1 [Compound 0043] | < 100 nM | < 100 nM | 11 nM | 7 nM
43 | O=C(Nc1ccc2ncc(-c3cnn(CCCN4CCOCC4)c3)cc2n1)NC1CCCC1 [Compound 0044] | < 100 nM | < 100 nM | 4 nM | 49 nM
44 | CN(CCO)CCn1cc(-c2cnc3ccc(NC(=O)NC4CCCC4)nc3c2)cn1 [Compound 0045] | < 100 nM | < 100 nM |  | 
45 | COCCNCCn1cc(-c2cnc3ccc(NC(=O)NC4CCCC4)nc3c2)cn1 [Compound 0047] | < 100 nM | 100 to 1000 nM |  | 
46 | COCCN(CCOC)CCn1cc(-c2cnc3ccc(NC(=O)NC4CCCC4)nc3c2)cn1 [Compound 0048] | < 100 nM | < 100 nM |  | 
47 | Cc1n[nH]c(C)c1-c1cnc2ccc(NC(=O)NC3CCCC3)nc2c1 [Compound 0049] | < 100 nM | < 100 nM |  | 
48 | Cc1noc(C)c1-c1cnc2ccc(NC(=O)NC3CCCC3)nc2c1 [Compound 0050] | 100 to 1000 nM | 100 to 1000 nM |  | 
49 | O=C(Nc1ccc2ncc(-c3cnn(CCN4CCNCC4)c3)cc2n1)NC1CCCC1 [Compound 0051] | < 100 nM | < 100 nM | 6 nM | 35 nM
50 | O=C1CN(CCn2cc(-c3cnc4ccc(NC(=O)NC5CCCC5)nc4c3)cn2)CCN1 [Compound 0052] | < 100 nM | < 100 nM |  | 
51 | CC(C)NC(=O)Nc1ccc2ncc(-c3cn[nH]c3)cc2n1 [Compound 0053] | < 100 nM | < 100 nM |  | 
52 | CCNC(=O)Nc1ccc2ncc(-c3cn[nH]c3)cc2n1 [Compound 0054] | 100 to 1000 nM | < 100 nM |  | 
53 | CCCNC(=O)Nc1ccc2ncc(-c3cn[nH]c3)cc2n1 [Compound 0055] | 100 to 1000 nM | < 100 nM |  | 
